Laboratory results reported in ChEMBL document CHEMBL1128638, “Probing the hydrophobic pocket of the active site of aromatase with 4-phenoxy-7 alpha-(phenylthio)-4-androstene-3,17-dione” (J Med Chem, 1995).

Biological target: T1, Aromatase (Homo sapiens, UniProt P11511)
T1 sequence (P11511 whole entry): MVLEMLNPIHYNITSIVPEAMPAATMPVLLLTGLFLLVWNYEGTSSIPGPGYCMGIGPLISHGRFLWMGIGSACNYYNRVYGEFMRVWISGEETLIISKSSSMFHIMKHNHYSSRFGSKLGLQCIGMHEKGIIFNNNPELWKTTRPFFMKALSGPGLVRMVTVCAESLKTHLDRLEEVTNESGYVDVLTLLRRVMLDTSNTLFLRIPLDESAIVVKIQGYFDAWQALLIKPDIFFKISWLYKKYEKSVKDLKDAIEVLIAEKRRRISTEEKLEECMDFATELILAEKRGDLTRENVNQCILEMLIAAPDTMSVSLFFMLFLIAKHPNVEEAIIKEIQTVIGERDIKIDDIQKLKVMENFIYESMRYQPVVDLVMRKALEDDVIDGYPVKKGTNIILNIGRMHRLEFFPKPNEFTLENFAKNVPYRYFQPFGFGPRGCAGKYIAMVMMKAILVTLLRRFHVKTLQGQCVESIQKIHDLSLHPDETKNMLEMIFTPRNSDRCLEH
Experiment: Inhibition of Cytochrome P450 19A1

Work on `C[C@]12CCC(=O)C=C1C[C@@H](Sc1ccccc1)[C@@H]1[C@@H]2CC[C@]2(C)C(=O)CC[C@@H]12` yielded an IC50 of 650 nM.
`CC12CCC3C(CCC4=C(Oc5ccccc5)C(=O)CCC43C)C1CCC2=O` (centres undefined) gave an IC50 of 530 nM.
`CC12CCC3C(C1CCC2=O)[C@H](Sc1ccccc1)CC1=C(Oc2ccccc2)C(=O)CCC13C` (some centres undefined) showed an IC50 of 1650 nM.
`CC12CCC3C(CCC4=C(Sc5ccccc5)C(=O)CCC43C)C1CCC2=O` (centres undefined) gave an IC50 of 190 nM.
